Measured values taken from PubChem BioAssay (NCI).
Several values for one entry are separate records, joined by “and”; a condition that tells them apart may be missing. Identical values can stand only once.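 Briefly, cells in 96-well plates were exposed to five compound concentrations for 48 h, and endpoints were estimated by linear interpolation. GI50 is the concentration that inhibits growth by half. TGI marks complete inhibition of growth.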

Experiments:
Experiment in all cases: DTP human tumour cell line panel, 48 h
A549 NSCLC = system: A549 NSCLC
KM12 colon = system: KM12 colon
MALME-3M melanoma = system: MALME-3M melanoma
OVCAR-3 ovarian = system: OVCAR-3 ovarian
TK-10 renal = system: TK-10 renal
UACC-62 melanoma = system: UACC-62 melanoma
UO-31 renal = system: UO-31 renal

Row | SMILES | TGI (A549 NSCLC) [µM] | TGI (KM12 colon) [µM] | TGI (MALME-3M melanoma) [µM] | TGI (OVCAR-3 ovarian) [µM] | TGI (TK-10 renal) [µM] | TGI (UACC-62 melanoma) [µM] | TGI (UO-31 renal) [µM] | GI50 (MALME-3M melanoma) | GI50 (A549 NSCLC) [µM] | GI50 (KM12 colon) [µM] | GI50 (OVCAR-3 ovarian) [µM] | GI50 (TK-10 renal) [µM] | GI50 (UACC-62 melanoma) [µM] | GI50 (UO-31 renal) [µM]
1 | CCOC(=O)/C(C#N)=C1/C(O)=C(C(=O)OC)C(C(=O)OC)=C1C(=O)OC | > 100 | > 100 | > 100 | > 100 | > 100 | > 100 | > 100 |  |  |  |  |  |  | 
2 | CC1=C[P+](Cc2ccccc2)(c2ccccc2)CC1 (centres undefined) | > 100 | > 100 | > 100 | > 100 | > 100 | > 100 | > 100 | 19.9 µM and 76.5 µM and 31.2 µM |  |  |  |  |  | 
3 | O=S(O)CCCSSc1ccccc1 | > 100 | > 100 | > 100 | > 100 | > 100 | > 100 | > 100 |  |  |  |  |  |  | 
4 | N#CCC(=O)N/N=C(\C(=O)Nc1ccc(Cl)c(Cl)c1)C1CN(c2ccccc2)N=C1N (centres undefined) | > 100 | > 100 | > 100 | > 100 | > 100 | > 100 | > 100 |  |  |  |  |  |  | 
5 | CC[C@@H]1C[C@H]2CC3c4[nH]c5ccc(O)cc5c4CCN(C2)C31 | > 100 | > 100 | > 100 | > 100 | > 100 | > 100 | > 100 |  |  |  |  |  |  | 
6 | CSCCOC(=O)C(=[N+]=[N-])c1ccc([N+](=O)[O-])cc1 | > 100 | > 100 | > 100 | > 100 | > 100 |  | > 100 |  |  |  |  |  |  | 
7 | CCC[CH2][Sn]1([CH2]CCC)[O]C(=O)c2ccc(C)cc2[O]1 | 2.97 | 2.36 | 1.44 | 2.43 | 0.766 | 1.57 | 2.08 | 0.327 µM | 1.57 | 1.06 | 1.18 | 0.297 | 0.437 | 0.845
8 | COc1ccc(OC(C(=O)O)c2ccccc2)c2c1CCCC2=O (centres undefined) | > 100 | > 100 | > 100 | > 100 | > 100 | > 100 | > 100 |  |  |  |  |  |  | 
9 | CNC(=O)c1cccc2c(Nc3ccc(NS(C)(=O)=O)cc3OC)c3cccc(C)c3nc12 | 1.61 | 2.42 | 4.55 | 5.02 | 8.2 | 1.38 | 2.89 |  |  |  |  |  |  | 
10 | CC(C)(C)OC(=O)NC(CO)c1cccc(OCc2ccccc2)c1 (centres undefined) | > 100 | > 100 | > 100 | > 100 | > 100 | > 100 | > 100 |  |  |  |  |  |  | 
11 | Cc1nn(-c2nc3ccccc3s2)c2c1C(=O)c1ccccc1-2 | > 100 | > 100 | > 100 | > 100 | > 100 | > 100 | > 100 |  |  |  |  |  |  | 
12 | OC1C2CCC1C1C3C=CC(C3)C21 (centres undefined) | > 100 | > 100 | > 100 | > 100 | > 100 | > 100 | > 100 |  |  |  |  |  |  | 
13 | C[n+]1ccc(-c2c3nc(c(-c4cc[n+](C)cc4)c4ccc([n-]4)c(-c4cc[n+](C)cc4)c4nc(c(-c5cc[n+](C)cc5)c5ccc2[n-]5)C=C4)C=C3)cc1.[I-].[Zn+2] | 49.5 | 69.5 | 39.8 | 28.1 | 38 | > 100 | 38.4 | 18.3 µM | 22.3 | 23.3 | 7.02 | 15.2 | 27.5 | 17.3
14 | c1ccc2c(c1)[nH]c1c2nc2ncccn21 | > 100 | > 100 | > 100 |  | > 100 | > 100 | > 100 |  |  |  |  |  |  | 
15 | O=C(NCC(O)CNC(=O)C(F)(F)F)C(F)(F)F | > 100 | > 100 | > 100 | > 100 | > 100 | > 100 | > 100 |  |  |  |  |  |  | 
16 | O=C1c2ccccc2C(=O)N1C/C=C/CO | > 100 | > 100 | > 100 | > 100 | > 100 | > 100 | > 100 |  |  |  |  |  |  | 
17 | N#C/C(=C/Sc1ccccc1)C(=O)O | > 100 | 99.3 |  | 78.5 | > 100 | > 100 | 41.4 |  |  |  |  |  |  | 
18 | COc1cc2c(cc1OC)C(=O)Cc1ccc(OC)c(OC)c1CN(C)CC2 | > 100 | > 100 | > 100 | > 100 | > 100 | > 100 | > 100 |  |  |  |  |  |  | 
19 | O=c1oc(=O)c2oc3ccccc3oc1=2 | > 100 | > 100 | > 100 | > 100 | > 100 | > 100 | > 100 |  |  |  |  |  |  | 
20 | Clc1cc2n[se]nc2cc1Cl | > 100 | > 100 | > 100 |  | > 100 | > 100 | > 100 |  |  |  |  |  |  | 
21 | CCOC(=O)c1ccc(NC(=O)SCCC(=O)O)cc1 | > 100 | > 100 |  | > 100 | > 100 | > 100 | > 100 |  |  |  |  |  |  | 
22 | O=C(COC(=O)c1cccc2c(=O)c3ccccc3[nH]c12)Nc1ccccc1 | > 100 | 54.1 | > 100 | > 100 | > 100 | 68 | 65.4 |  |  |  |  |  |  | 
